Among the data in patent US12180226B2, “Spirotricycle RIPK1 inhibitors and methods of uses thereof” (Merck Sharp & Dohme LLC, priority 2021, dated 2024) are EC50 values, retold here.

Where a name gives a salt, the structure may show the parent alone.

The target of the test is RIPK1 (recombinant GST-RIPK1 kinase domain, residues 1-327) (Homo sapiens (Human), UniProt Q13546). The test is described as follows: RIPK1-ADP-Glo Enzymatic Assay. Format: biochemical. To be noted: ADP-Glo; 25 nM GST-RIPK1, 300 μM ATP; assay lower limit ~25 nM; read-out: RIPK1 V0 Ec50. The method, boiled down:
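GST-tagged kinase domain (residues 1-327, Sf21-expressed), 25 nM, pre-incubated 30 min with compound at ambient temperature, then reacted 150 min with 300 μM ATP and 3 μM dephosphorylated MBP in HEPES pH 7.3 buffer. ADP measured by ADP-Glo luminescence; EC50 from ten-point titration (top 100000 nM), four-parameter fit.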
Background: In ADP-Glo the light output rises with the ADP produced.

RIPK1 (recombinant GST-RIPK1 kinase domain, residues 1-327), sequence (Q13546 1-327): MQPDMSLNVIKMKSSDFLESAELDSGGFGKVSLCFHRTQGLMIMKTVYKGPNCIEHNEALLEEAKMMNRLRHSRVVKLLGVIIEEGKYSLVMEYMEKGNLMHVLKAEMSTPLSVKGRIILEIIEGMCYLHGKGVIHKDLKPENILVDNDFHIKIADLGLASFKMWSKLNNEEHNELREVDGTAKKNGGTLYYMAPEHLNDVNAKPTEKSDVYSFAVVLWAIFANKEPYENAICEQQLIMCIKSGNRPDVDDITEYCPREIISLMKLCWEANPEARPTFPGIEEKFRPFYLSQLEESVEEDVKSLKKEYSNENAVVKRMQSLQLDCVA

As usually defined, the EC50 is the concentration that produces a half-maximal response. With `CC1CN(C(=O)c2ccccc2)CCC12O[C@@H]1CC[C@@H](c3cc(F)cc(F)c3)N1C2=O` (stereo partly drawn) [Example 6.110, (5′S,7a′R)-1-(benzene-carbonyl)-5′-(3,5-difluorophenyl)-3-methyltetrahydro-3′H-spiro[piperidine-4,2′-pyrrolo[2,1-b][1,3]-oxazol]-3′-one], the concentration giving a half-maximal response (EC50) was < 25 nM. The result for `N#Cc1ccnc(N2CCC3(CC2)O[C@@H]2CC[C@@H](c4cccc(F)c4)N2C3=O)c1` [Example 4.54, 2-[(5′S,7a′R)-5′-(3-fluorophenyl)-3′-oxotetrahydro-1H,3′H-spiro[piperidine-4,2′-pyrrolo[2,1-b] [1,3]oxazol]-1-yl]pyridine-4-carbonitrile] reads 31.1 nM; that for `O=C1N2[C@@H](CC[C@H]2c2cc(F)cc(F)c2)OC12CCN(c1ncc(Cl)cn1)CC2` [Example 4.63, (5′S,7a′R)-1-(5-chloropyrimidin-2-yl)-5′-(3,5-difluorophenyl)tetrahydro-3′H-spiro[piperidine-4,2′-pyrrolo[2,1-b] [1,3]oxazol]-3′-one], 48.6 nM. In the case of `COc1ccc(N2CCC3(CC2)O[C@@H]2CC[C@@H](c4cc(F)cc(F)c4)N2C3=O)n2nccc12` [Example 19.1, (5′S,7a′R)-5′-(3,5-Difluorophenyl)-1-(4-methoxypyrazolo[1,5-a]pyridin-7-yl)tetrahydro-3′H-spiro[piperidine-4,2′-pyrrolo[2,1-b]oxazol]-3′-one, TFA] it was < 25 nM; in that of `N#Cc1ccc(N2CCC3(CC2)O[C@@H]2CC[C@@H](c4ccccc4F)N2C3=O)n2ncnc12` [Example 4.249, 5-[(5′S,7a′R)-5′-(2-fluorophenyl)-3′-oxotetrahydro-1H,3′H-spiro[piperidine-4,2′-pyrrolo[2,1-b] [1,3]oxazol]-1-yl][1,2,4]triazolo[1,5-a] pyridine-8-carbonitrile], < 25 nM. The result for `N#Cc1ccccc1C(=O)N1CCC2(CC1)O[C@@H]1CC[C@@H](c3cc(F)cc(F)c3)N1C2=O` [Example 5.13, 2-((5′S,7a′R)-5′-(3,5-difluorophenyl)-3′-oxo-tetrahydro-3′H-spiro [piperidine-4,2′-pyrrolo-[2,1-b]oxazole]-1-carbon-yl)benzonitrile] reads 277 nM; that for `N#CN1CCC2(CC1)O[C@@H]1CC[C@@H](c3cc(F)cc(F)c3)N1C2=O` [Example 4.48, (5′S,7a′R)-5′-(3,5-difluorophenyl)-3′-oxotetrahydro-1H,3′H-spiro[piperidine-4,2′-pyrrolo[2,1-b] [1,3]oxazole]-1-carbonitrile], 150 nM; that for `O=C(c1cnn2c1CSCC2)N1CCC2(CC1)O[C@@H]1CC[C@@H](c3cc(F)cc(F)c3)N1C2=O` [Example 6.39, (5′S,7a′R)-5′-(3,5-difluorophenyl)-1-(6,7-dihydro-4H-pyrazolo-[5,1-c][1,4]thiazine-3-carbonyl)tetrahydro-3′H-spiro[piperidine-4,2′-pyrrolo[2,1-b] [1,3]oxazol]-3′-one], 738 nM.

As to `O=C(c1c(F)cc(F)cc1F)N1CCC2(CC1)O[C@@H]1CC[C@@H](c3cc(F)cc(F)c3)N1C2=O` [Example 5.2, (5′S,7a′R)-5′-(3,5-difluoro-phenyl)-1-(2,4,6-trifluoro-benzene-1-carbonyl)tetra-hydro-3′H-spiro[piperi-dine-4,2′-pyrrolo[2,1-b] [1,3]oxazol]-3′-one], the 50% effective concentration (EC50) is < 25 nM. In the case of `Cc1cncc(C(=O)N2CCC3(CC2)O[C@@H]2CC[C@@H](c4cc(F)cc(F)c4)N2C3=O)c1` [Example 6.59, (5′S,7a′R)-5'-(3,5-difluorophenyl)-1-(5-methylpyridine-3-carbonyl)tetrahydro-3′H-spiro[piperidine-4,2′-pyrrolo[2,1-b] [1,3]oxazol]-3′-one] it was 281 nM; in that of `O=C(c1cnc(C(F)(F)F)cn1)N1CCC2(CC1)O[C@@H]1CC[C@@H](c3cc(F)cc(F)c3)N1C2=O` [Example 6.1, (5′S,7a′R)-5′-(3,5-Difluorophenyl)-1-(5-(trifluoromethyl)pyrazine-2-carbonyl)tetrahydro-3′H-spiro[piperidine-4,2′-pyrrolo[2,1-b]oxazol]-3′-one], 388 nM. The result for `N#Cc1ccc(N2CCC3(CC2)O[C@@H]2CC[C@@H](c4ccccc4)N2C3=O)n2ncc(F)c12` [Example 4.177, 3-fluoro-7-[(5′S,7a′R)-3′-oxo-5′-phenyltetrahydro-1H,3′H-spiro[piperidine-4,2′-pyrrolo[2,1-b] [1,3]oxazol]-1-yl]pyrazolo[1,5-a] pyridine-4-carbonitrile] reads < 25 nM; that for `O=C1N2[C@@H](CC[C@H]2c2ccccc2)OC12CCN(c1csc(C(F)F)c1)CC2` [Example 11.26, (5′S,7a′R)-1-[5-(difluoromethyl)thiophen-3-yl]-5′-phenyltetrahydro-3′H-spiro[piperidine-4,2′-pyrrolo[2,1-b][1,3]oxazol]-3′-one], 132 nM. With `O=C(c1cscn1)N1CCC2(CC1)O[C@@H]1CC[C@@H](c3cc(F)cc(F)c3)N1C2=O` [Example 5.44], the EC50 was 33.1 nM. In the case of `CC(C)N1Cc2nc(N3CCC4(CC3)O[C@@H]3CC[C@@H](c5ccccc5)N3C4=O)ccc2C1=O` [Example 4.195, (5′S,7a′R)-1-[5-oxo-6-(propan-2-yl)-6,7-dihydro-5H-pyrrolo[3,4-b]pyridin-2-yl]-5′-phenyltetrahydro-3′H-spiro[piperidine-4,2′-pyrrolo[2,1-b] [1,3]oxazol]-3′-one] it was 48.4 nM; in that of `O=C(c1ncoc1C1CC1)N1CCC2(CC1)O[C@@H]1CC[C@@H](c3cc(F)cc(F)c3)N1C2=O` [Example 6.24, (5′S,7a′R)-1-(5-cyclo-propyl-1,3-oxazole-4-carbonyl)-5′-(3,5-difluorophenyl)tetra-hydro-3′H-spiro[piperi-dine-4,2′-pyrrolo[2,1-b][1,3]oxazol]-3′-one], 32.3 nM; in that of `Cc1nc(N2CCC3(CC2)O[C@@H]2CC[C@@H](c4ccccc4)N2C3=O)ccc1F` [Example 11.33, (5′S,7a′R)-1-(5-fluoro-6-methylpyridin-2-yl)-5′-phenyltetrahydro-3′H-spiro[piperidine-4,2′-pyrrolo[2,1-b][1,3]oxazol]-3′-one], < 25 nM. On to `CC(C)(C)OC(=O)/C=C/c1ccc(N2CCC3(CC2)O[C@@H]2CC[C@@H](c4ccccc4)N2C3=O)nc1` [Example 4.163, tert-butyl (2E)-3-{6-[(5′S,7a′R)-3′-oxo-5′-phenyltetrahydro-1H,3′H-spiro[piperidine-4,2′-pyrrolo[2,1-b] [1,3]oxazol]-1-yl]pyridin-3-yl}prop-2-enoate], for which the EC50 was 30.3 nM. In the case of `CCOc1ncccc1C(=O)N1CCC2(CC1)O[C@@H]1CC[C@@H](c3cc(F)cc(F)c3)N1C2=O` [Example 6.38, (5′S,7a′R)-5′-(3,5-difluorophenyl)-1-(2-ethoxypyridine-3-carbonyl)tetrahydro-3′H-spiro[piperidine-4,2′-pyrrolo[2,1-b] [1,3]oxazol]-3′-one] it was 867 nM; in that of `O=C(c1cnc2ccccc2n1)N1CCC2(CC1)O[C@@H]1CC[C@@H](c3cc(F)cc(F)c3)N1C2=O` [Example 6.73, (5′S,7a′R)-5′-(3,5-difluorophenyl)-1-(quinoxaline-2-carbon-yl)tetrahydro-3′H-spiro[piperidine-4,2′-pyrrolo[2,1-b][1,3]-oxazol]-3′-one], 48.6 nM.

In the case of `O=C1N2[C@@H](CC[C@H]2c2ccccc2)OC12CCN(c1cccc3ncnn13)CC2` [Example 13.1, (5′S,7a′R)-1-([1,2,4]Triazolo[1,5-a]pyridin-5-yl)-5′-phenyltetrahydro-3′H-spiro[piperidine-4,2′-pyrrolo[2,1-b]oxazol]-3′-one, TFA], the half-maximal effective concentration (EC50) stood at 26.8 nM. In the case of `O=C(c1ccc(F)cc1F)N1CCC2(CC1)O[C@@H]1CC[C@@H](c3cc(F)cc(F)c3)N1C2=O` [Example 5.5, (5′S,7a′R)-1-(2,4-difluoro-benzene-1-carbonyl)5′-(3,5-difluorophenyl)tetra-hydro-3′H-spiro[piperi-dine-4,2′-pyrrolo[2,1-b] [1,3]oxazol]-3′-one] it was < 25 nM; in that of `O=C1N2[C@@H](CC[C@H]2c2cc(F)cc(F)c2)OC12CCN(c1nccn3cccc13)CC2` [Example 13.10, (5′S,7a′R)-5′-(3,5-difluorophenyl)-1-(pyrrolo[1,2-a]pyrazin-1-yl)tetrahydro-3′H-spiro[piperidine-4,2′-pyrrolo[2,1-b]oxazol]-3′-one], 36.8 nM; in that of `Cc1cnc(C(=O)N2CCC3(CC2)O[C@@H]2CC[C@@H](c4cc(F)cc(F)c4)N2C3=O)cn1` [Example 6.3, (5′S,7a′R)-5′-(3,5-difluorophenyl)-1-(5-methylpyrazine-2-carbonyl)tetrahydro-3′H-spiro[piperidine-4,2′-pyrrolo[2,1-b] [1,3]oxazol]-3′-one], 60.1 nM. In the case of `O=C(c1ccsc1-n1nccn1)N1CCC2(CC1)O[C@@H]1CC[C@@H](c3cc(F)cc(F)c3)N1C2=O` [Example 6.68, (5′S,7a′R)-5′-(3,5-difluorophenyl)-1-[2-(2H-1,2,3-triazol-2-yl)thiophene-3-carbonyl]tetrahydro-3′H-spiro[piperidine-4,2′-pyrrolo[2,1-b] [1,3]oxazol]-3′-one] it was 212 nM; in that of `O=C1N2[C@@H](CC[C@H]2c2cccc(F)c2)OC12CCN(c1cc(C(F)F)ncn1)CC2` [Example 4.52, (5′S,7a′R)-1-[6-(difluoromethyl)pyrimidin-4-yl]-5′-(3-fluorophenyl)tetrahydro-3′H-spiro[piperidine-4,2′-pyrrolo[2,1-b] [1,3]oxazol]-3′-one], 69 nM; in that of `O=C(c1cocn1)N1CCC2(CC1)O[C@@H]1CC[C@@H](c3cc(F)cc(F)c3)N1C2=O` [Example 5.54, (5′S,7a′R)-5′-(3,5-difluoro-phenyl)-1-(oxazole-4-car-bonyl)tetrahydro-3′H-spiro [piperidine-4,2′-pyrrolo-[2,1-b]oxazol]-3′-one], 27.2 nM.
